Assay results from patent publication US12503436B2, “Compounds and compositions for treating conditions associated with STING activity” (NOVARTIS PHARMA AG, priority 2021, dated 2025).

Target: STING (Homo sapiens, UniProt Q86WV6, G230A/H232R/R293Q/R71H)
Test: STING reporter assay in THP1-Dual KO-IFNAR2 cells (2′3′cGAMP stimulation, luciferase reporter)
Format: cell-based
Conditions: 15 μM 2′3′cGAMP stimulation, 24 h, read-out: Pharmaron, THP1_IFNAR2 STING 24 h Luci Normalized: GeoMean EC50
Experimental: STING pathway activation by the compounds described herein was measured using THP1-Dual™ cells (KO-IFNAR2).
THP1-Dual™ KO-IFNAR2 Cells (obtained from InvivoGen) were maintained in RPMI, 10% FCS, 5 ml P/S, 2 mM L-glut, 10 mM Hepes, and 1 mM sodium pyruvate. Compounds were spotted in empty 384 well tissue culture plates (Greiner 781182) by Echo for a final concentration of 0.0017-100 μM. Cells were plated into the TC plates at 40 μL per well, 2×10E6 cells/mL. For activation with STING ligand, 2′3′cGAMP (MW 718.38, obtained from Invivogen), was prepared in Optimem media.
The following solutions were prepared for each 1×384 plate: • Solution A: 2 mL Optimem with one of the following stimuli: • 60 μL of 10 mM 2′3′cGAMP→150 μM stock • Solution B: 2 mL Optimem with 60 μL Lipofectamine 2000→Incubate 5 min at RT
2 mL of solution A and 2 ml Solution B was mixed and incubated for 20 min at room temperature (RT). 20 μL of transfection solution (A+B) was added on top of the plated cells, with a final 2′3′cGAMP concentration of 15 μM. The plates were then centrifuged immediately at 340 g for 1 minute, after which they were incubated at 37° C., 5% CO2, >98% humidity for 24 h. Luciferase reporter activity was then measured. EC50 values were calculated by using standard methods known in the art.
Luciferase reporter assay: 10 μL of supernatant from the assay was transferred to white 384-plate with flat bottom and squared wells. One pouch of QUANTI-Luc™ Plus was dissolved in 25 mL of water. 100 μL of QLC Stabilizer per 25 mL of QUANTI-Luc™ Plus solution was added. 50 μL of QUANTI-Luc™ Plus/QLC solution per well was then added. Luminescence was measured on a Platereader (e.g., Spectramax I3X (Molecular Devices GF3637001)).
Luciferase reporter activity was then measured. EC50 values were calculated by using standard methods known in the art.

STING, sequence (Q86WV6 whole entry R71H/G230A/H232R/R293Q): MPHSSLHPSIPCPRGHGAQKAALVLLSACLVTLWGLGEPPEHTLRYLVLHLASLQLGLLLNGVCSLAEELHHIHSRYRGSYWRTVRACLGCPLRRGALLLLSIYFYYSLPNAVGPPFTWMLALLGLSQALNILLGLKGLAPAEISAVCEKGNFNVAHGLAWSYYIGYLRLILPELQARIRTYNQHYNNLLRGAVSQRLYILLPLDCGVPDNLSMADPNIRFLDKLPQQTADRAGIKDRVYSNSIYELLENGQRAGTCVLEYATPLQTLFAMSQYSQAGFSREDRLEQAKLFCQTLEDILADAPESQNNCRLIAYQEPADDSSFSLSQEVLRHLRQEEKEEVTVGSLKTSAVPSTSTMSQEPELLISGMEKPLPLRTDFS

EC50	Compound
1000 to 5000 nM	CC(=O)Nc1c[nH]c2ccc(OCCc3ccc(C(F)(F)F)nc3)cc12 [Compound 113, N-(5-(2-(6-(trifluoromethyl)pyridin-3-yl)ethoxy)-1H-indol-3-yl)acetamide]
200 to 1000 nM	CC(=O)Nc1c[nH]c2ccc(CCC3CCN(CC(F)(F)F)CC3)cc12 [Compound 114, N-(5-(2-(1-(2,2,2-trifluoroethyl)piperidin-4-yl)ethyl)-1H-indol-3-yl)acetamide]
40 to 200 nM	CC(=O)Nc1c[nH]c2ccc(COc3ccc(C(F)(F)F)cc3)cc12 [Compound 115, N-(5-((4-(trifluoromethyl)phenoxy)methyl)-1H-indol-3-yl)acetamide]
5000 to 100000 nM	CC(=O)Nc1c[nH]c2ccc(Oc3ccc(C(F)(F)F)cn3)cc12 [Compound 116, N-(5-((5-(trifluoromethyl)pyridin-2-yl)oxy)-1H-indol-3-yl)acetamide]
200 to 1000 nM	COCC(=O)Nc1c[nH]c2ccc(OCCC3CCN(CC(F)(F)F)CC3)cc12 [Compound 117, 2-methoxy-N-(5-(2-(1-(2,2,2-trifluoroethyl)piperidin-4-yl)ethoxy)-1H-indol-3-yl)acetamide]
200 to 1000 nM	CC(C)(O)CC(=O)Nc1c[nH]c2ccc(OCCC3CCN(CC(F)(F)F)CC3)cc12 [Compound 118, 3-hydroxy-3-methyl-N-(5-(2-(1-(2,2,2-trifluoroethyl)piperidin-4-yl)ethoxy)-1H-indol-3-yl)butanamide]
5000 to 100000 nM	CC(=O)Nc1c[nH]c2ccc(OCC3CCN(CC(F)(F)F)CC3)cc12 [Compound 119, N-(5-((1-(2,2,2-trifluoroethy|)piperidin-4-yl)methoxy)-1H-indol-3-yl)acetamide]
5000 to 100000 nM	CC(=O)Nc1c[nH]c2ccc(OC[C@@H]3[C@H]4CN(CC(F)(F)F)C[C@@H]34)cc12 [Compound 120, N-(5-(((1R,5S,6r)-3-(2,2,2-trifluoroethyl)-3-azabicyclo[3.1.0]hexan-6-yl)methoxy)-1H-indol-3-yl)acetamide]
200 to 1000 nM	COCCCC(=O)Nc1c[nH]c2ccc(OCCC3CCN(CC(F)(F)F)CC3)cc12 [Compound 121, 4-methoxy-N-(5-(2-(1-(2,2,2-trifluoroethyl)piperidin-4-yl)ethoxy)-1H-indol-3-yl)butanamide]
200 to 1000 nM	CC(=O)Nc1c[nH]c2ccc(OCCC3CCN(CC(F)(F)F)CC3)cc12 [Compound 122, N-(5-(2-(1-(2,2,2-trifluoroethyl)piperidin-4-yl)ethoxy)-1H-indol-3-yl)acetamide]
5000 to 100000 nM	CC(=O)Nc1c[nH]c2ccc(Oc3ccc(C(F)(F)F)nc3)cc12 [Compound 123, N-(5-((6-(trifluoromethyl)pyridin-3-yl)oxy)-1H-indol-3-yl)acetamide]
1000 to 5000 nM	CC(=O)Nc1c[nH]c2ccc(Oc3ccc(C(F)(F)F)cc3)cc12 [Compound 124, N-(5-(4-(trifluoromethyl)phenoxy)-1H-indol-3-yl)acetamide]
200 to 1000 nM	CC(=O)Nc1c[nH]c2ccc(CNc3ccc(C(F)(F)F)nc3)cc12 [Compound 125, N-(5-(((6-(trifluoromethyl)pyridin-3-yl)amino)methyl)-1H-indol-3-yl)acetamide]
1000 to 5000 nM	CC(=O)Nc1c[nH]c2ccc(CCNc3ccc(C(F)(F)F)nc3)cc12 [Compound 126, N-(5-(2-((6-(trifluoromethyl)pyridin-3-yl)amino)ethyl)-1H-indol-3-yl)acetamide]
40 to 200 nM	CC(=O)Nc1c[nH]c2ccc(CCOc3ccc(C(F)(F)F)cc3)cc12 [Compound 127, N-(5-(2-(4-(trifluoromethyl)phenoxy)ethyl)-1H-indol-3-yl)acetamide]
200 to 1000 nM	CC(=O)Nc1c[nH]c2ccc(Cc3ccc(C(F)(F)F)cc3)cc12 [Compound 128, N-(5-(4-(trifluoromethyl)benzyl)-1H-indol-3-yl)acetamide]
200 to 1000 nM	O=C(Nc1c[nH]c2ccc(OCCC3CCN(CC(F)(F)F)CC3)cc12)C1CCC1 [Compound 129, N-(5-(2-(1-(2,2,2-trifluoroethyl)piperidin-4-yl)ethoxy)-1H-indol-3-yl)cyclobutanecarboxamide]

EC50	Compound
200 to 1000 nM	CCC(=O)Nc1c[nH]c2ccc(COc3ccc(C(F)(F)F)cc3)cc12 [Compound 130, N-(5-((4-(trifluoromethyl)phenoxy)methyl)-1H-indol-3-yl)propionamide]
1000 to 5000 nM	CC(CCc1ccc(C(F)(F)F)cc1)c1ccc2[nH]cc(NC(=O)C3CCC3)c2c1 (stereo not drawn) [Compound 131, N-(5-(4-(4-(trifluoromethyl)phenyl)butan-2-yl)-1H-indol-3-yl)cyclobutanecarboxamide]
40 to 200 nM	CC(=O)Nc1c[nH]c2ccc(CCCc3ccc(C(F)(F)F)cc3)cc12 [Compound 132, N-(5-(3-(4-(trifluoromethyl)phenyl)propyl)-1H-indol-3-yl)acetamide]
200 to 1000 nM	COC(CCc1ccc2[nH]cc(NC(=O)C3CCC3)c2c1)c1ccc(C(F)(F)F)cc1 (stereo not drawn) [Compound 133, N-(5-(3-methoxy-3-(4-(trifluoromethyl)phenyl)propyl)-1H-indol-3-yl)cyclobutanecarboxamide]
200 to 1000 nM	O=C(Nc1c[nH]c2ccc(CCNc3ccc(C(F)(F)F)cn3)cc12)C1CCC1 [Compound 134, N-(5-(2-((5-(trifluoromethyl)pyridin-2-yl)amino)ethyl)-1H-indol-3-yl)cyclobutanecarboxamide]
200 to 1000 nM	O=C(Nc1c[nH]c2ccc(/C=C/Cc3ccc(C(F)(F)F)cc3)cc12)C1CCC1 [Compound 135, (E)-N-(5-(3-(4-(trifluoromethyl)phenyl)prop-1-en-1-yl)-1H-indol-3-yl)cyclobutanecarboxamide]
40 to 200 nM	CC(=O)Nc1c[nH]c2ccc(OCCc3ccc(C(F)(F)F)cc3)cc12 [Compound 136, N-(5-(4-(trifluoromethyl)phenethoxy)-1H-indol-3-yl)acetamide]
1000 to 5000 nM	CC(Cc1ccc(C(F)(F)F)cc1)Cc1ccc2[nH]cc(NC(=O)C3CCC3)c2c1 (stereo not drawn) [Compound 137, N-(5-(2-methyl-3-(4-(trifluoromethyl)phenyl)propyl)-1H-indol-3-yl)cyclobutanecarboxamide]
200 to 1000 nM	CCC(=O)Nc1c[nH]c2ccc(OCc3ccc(C(F)(F)F)cc3)cc12 [Compound 138, N-(5-((4-(trifluoromethyl)benzyl)oxy)-1H-indol-3-yl)propionamide]
40 to 200 nM	O=C(Nc1c[nH]c2ccc(CCCc3ccc(C(F)(F)F)cc3)cc12)C1CCC1 [Compound 139, N-(5-(3-(4-(trifluoromethyl)phenyl)propyl)-1H-indol-3-yl)cyclobutanecarboxamide]
200 to 1000 nM	CC(C)(C)OC(=O)N1CCC(CCOc2ccc3[nH]cc(NC(=O)C4CCC4)c3c2)CC1 [Compound 140, tert-butyl 4-(2-((3-(cyclobutanecarboxamido)-1H-indol-5-yl)oxy)ethyl)piperidine-1-carboxylate]
1000 to 5000 nM	O=C(Nc1c[nH]c2ccc(CCc3ccc(C(F)(F)F)cc3)cc12)C1CCC1 [Compound 141, N-(5-(4-(trifluoromethyl)phenethyl)-1H-indol-3-yl)cyclobutanecarboxamide]
200 to 1000 nM	O=C(Nc1c[nH]c2ccc(OCCc3ccc(C(F)(F)F)nc3)cc12)C1CCC1 [Compound 142, N-(5-(2-(6-(trifluoromethyl)pyridin-3-yl)ethoxy)-1H-indol-3-yl)cyclobutanecarboxamide]
1000 to 5000 nM	CCO/C=C/c1ccc2[nH]cc(NC(=O)C3CCC3)c2c1 [Compound 143, (E)-N-(5-(2-ethoxyvinyl)-1H-indol-3-yl)cyclobutanecarboxamide]
5000 to 100000 nM	O=C(Nc1c[nH]c2ccc(/C=C/c3ccc(C(F)(F)F)cc3)cc12)C1CCC1 [Compound 144, (E)-N-(5-(4-(trifluoromethyl)styryl)-1H-indol-3-yl)cyclobutanecarboxamide]
200 to 1000 nM	O=C(Nc1c[nH]c2ccc(CCOc3ccc(C(F)(F)F)cc3)cc12)C1CCC1 [Compound 145, N-(5-(2-(4-(trifluoromethyl)phenoxy)ethyl)-1H-indol-3-yl)cyclobutanecarboxamide]
40 to 200 nM	CCC(=O)Nc1c[nH]c2ccc(OCCc3ccc(C(F)(F)F)cc3)cc12 [Compound 146, N-(5-(4-(trifluoromethyl)phenethoxy)-1H-indol-3-yl)propionamide]

Compound	EC50
O=C(Nc1c[nH]c2ccc(O[C@H]3C[C@H](c4ccc(C(F)(F)F)cc4)C3)cc12)C1CC1 [Compound 147, N-(5-(trans-3-(4-(trifluoromethyl)phenyl)cyclobutoxy)-1H-indol-3-yl)cyclopropanecarboxamide]	40 to 200 nM
CC1(C(=O)Nc2c[nH]c3ccc(O[C@H]4C[C@H](c5ccc(C(F)(F)F)cc5)C4)cc23)COC1 [Compound 148, 3-methyl-N-(5-(trans-3-(4-(trifluoromethyl)phenyl)cyclobutoxy)-1H-indol-3-yl)oxetane-3-carboxamide]	200 to 1000 nM
